Test [1] addresses T1, Histone-lysine N-methyltransferase NSD2 (Homo sapiens, UniProt O96028).
T1 sequence (O96028 whole entry): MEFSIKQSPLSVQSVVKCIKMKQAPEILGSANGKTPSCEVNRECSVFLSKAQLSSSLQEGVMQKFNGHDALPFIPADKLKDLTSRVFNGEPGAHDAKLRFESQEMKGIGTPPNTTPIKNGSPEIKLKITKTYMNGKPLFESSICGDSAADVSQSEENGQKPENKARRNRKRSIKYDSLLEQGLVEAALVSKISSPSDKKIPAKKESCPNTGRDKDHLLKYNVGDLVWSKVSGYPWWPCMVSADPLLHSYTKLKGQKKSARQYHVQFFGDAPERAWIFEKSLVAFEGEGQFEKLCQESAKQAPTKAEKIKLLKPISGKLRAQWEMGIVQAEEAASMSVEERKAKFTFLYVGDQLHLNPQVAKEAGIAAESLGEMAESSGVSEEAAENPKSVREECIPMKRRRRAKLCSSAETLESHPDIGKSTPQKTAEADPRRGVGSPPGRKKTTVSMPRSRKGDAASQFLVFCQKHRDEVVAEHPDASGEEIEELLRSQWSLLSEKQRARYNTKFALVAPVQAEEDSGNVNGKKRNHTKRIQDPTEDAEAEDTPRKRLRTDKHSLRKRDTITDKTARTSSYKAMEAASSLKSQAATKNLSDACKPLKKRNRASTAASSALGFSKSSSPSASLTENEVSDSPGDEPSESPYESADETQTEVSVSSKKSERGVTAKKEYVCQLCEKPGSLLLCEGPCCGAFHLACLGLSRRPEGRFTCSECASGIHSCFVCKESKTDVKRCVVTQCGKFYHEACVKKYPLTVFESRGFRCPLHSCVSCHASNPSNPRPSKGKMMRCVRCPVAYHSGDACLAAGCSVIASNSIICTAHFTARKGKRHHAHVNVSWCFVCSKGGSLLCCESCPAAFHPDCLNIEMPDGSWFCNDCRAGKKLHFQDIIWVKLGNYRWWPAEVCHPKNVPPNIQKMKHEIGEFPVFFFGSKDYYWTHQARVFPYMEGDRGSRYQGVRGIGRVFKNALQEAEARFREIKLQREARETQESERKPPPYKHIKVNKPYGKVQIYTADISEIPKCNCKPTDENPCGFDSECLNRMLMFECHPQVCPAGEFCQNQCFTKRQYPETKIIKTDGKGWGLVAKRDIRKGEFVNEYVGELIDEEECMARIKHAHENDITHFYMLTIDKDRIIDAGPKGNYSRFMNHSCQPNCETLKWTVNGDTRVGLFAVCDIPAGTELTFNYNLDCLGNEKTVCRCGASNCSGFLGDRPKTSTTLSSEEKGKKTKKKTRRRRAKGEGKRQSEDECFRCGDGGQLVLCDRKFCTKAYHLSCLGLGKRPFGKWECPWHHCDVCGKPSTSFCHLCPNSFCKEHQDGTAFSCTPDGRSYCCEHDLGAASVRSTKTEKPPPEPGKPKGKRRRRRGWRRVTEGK
The class given is biochemical.

In test [2] the target is T2, DNA repair protein RAD52 homolog (Homo sapiens, UniProt P43351).
T2 sequence (P43351 whole entry): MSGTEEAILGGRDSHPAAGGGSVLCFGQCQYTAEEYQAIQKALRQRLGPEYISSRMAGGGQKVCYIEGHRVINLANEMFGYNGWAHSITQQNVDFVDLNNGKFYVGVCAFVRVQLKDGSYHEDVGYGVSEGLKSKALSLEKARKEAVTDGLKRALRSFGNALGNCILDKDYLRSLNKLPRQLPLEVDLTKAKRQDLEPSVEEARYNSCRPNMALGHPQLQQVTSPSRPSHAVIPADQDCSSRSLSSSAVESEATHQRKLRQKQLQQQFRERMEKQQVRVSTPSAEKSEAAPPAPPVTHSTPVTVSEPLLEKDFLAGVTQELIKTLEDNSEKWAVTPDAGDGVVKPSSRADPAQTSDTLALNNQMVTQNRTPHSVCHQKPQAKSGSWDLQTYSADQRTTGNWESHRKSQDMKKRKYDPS
Format: functional, biochemical.

Test [3] can be described thus: cytotoxicity in HEK-293T cells, dose response, cytotoxicity control for TCR NF-kB inhibitor project, luminescence, T-cell screen hits (AID 489026).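 Further: cells exposed to compound about 14 hours before the viability readout.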 Format: functional, cell-based.
The nature of test [4]: HepG2 cell cytotoxicity, dose response, cytotoxicity control for Shn3 inhibitor project, CellTiter-Glo, cherry-picked (AID 624134). The class given is functional, cell-based.
The nature of test [5]: control 3'UTR Renilla luciferase suppression, dose response, counter-screen for Shn3 inhibitor project, cell-based, Clone20-Shn3RL, cherry-picked (AID 624133). The class given is functional.
A short description of test [6]: Shn3 3'UTR reporter inhibitors, dose response, cell-based, Clone20 osteoblasts, firefly luciferase, cherry-picked (AID 624132).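 Further: firefly luciferase luminescence from reporter carrying the Shn3 3'UTR in osteoblasts.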 Format: functional.
A further test deals with T3, Cytochrome P450 1A2 (Homo sapiens, UniProt P05177).
T3 sequence (P05177 whole entry): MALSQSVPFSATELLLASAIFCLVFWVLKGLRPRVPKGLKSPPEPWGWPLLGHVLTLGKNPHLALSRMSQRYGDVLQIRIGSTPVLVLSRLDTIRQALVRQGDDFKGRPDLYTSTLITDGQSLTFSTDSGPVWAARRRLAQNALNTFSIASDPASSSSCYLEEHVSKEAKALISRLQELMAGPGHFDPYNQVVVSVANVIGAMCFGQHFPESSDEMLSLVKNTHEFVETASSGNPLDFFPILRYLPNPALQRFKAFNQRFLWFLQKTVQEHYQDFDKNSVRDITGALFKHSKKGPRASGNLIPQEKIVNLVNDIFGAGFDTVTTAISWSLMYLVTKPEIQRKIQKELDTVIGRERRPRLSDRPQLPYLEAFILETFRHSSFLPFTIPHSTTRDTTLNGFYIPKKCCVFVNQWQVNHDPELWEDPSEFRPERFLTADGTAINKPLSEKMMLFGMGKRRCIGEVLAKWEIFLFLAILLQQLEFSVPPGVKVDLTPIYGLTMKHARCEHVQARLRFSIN

For the next test, the system named is INS1. The test can be described thus: beta cell apoptosis inhibitors, cytokine rescue, dose response, luminescence, retest (AID 449756).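 Further: cell death triggered by IL-1 beta plus TNF-alpha plus IFN-gamma mixture; protective hits raise ATP signal compared with cytokine alone wells.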 Format: functional, cell-based. The following applies: Rattus norvegicus.
A short description of test [7]: inhibitors of firefly luciferase expression or activity, dose response, H4 neuroglioma cells, luminescence (AID 1990). Format: functional, cell-based.
Test [8] in a line: inhibitors of SNCA 5'UTR-driven reporter translation, confirmation, H4 neuroglioma cells, luminescence (AID 1988). The class given is functional, cell-based.
Test [9] in a line: Luminescence Cell-Based Dose Response HTS to Identify Inhibitors of 5'UTR Stem-Loop Driven Prion Protein mRNA Translation in H4 Neuroglioblastoma Cells. [Related pubchem assays: 1827 (Project Summary), 1813 (Primary HTS)]. The class given is functional.
Test [10] deals with T4, Fatty acid synthase (Homo sapiens, UniProt P49327). The test can be described thus: FAS thioesterase domain inhibitors, dose response, biochemical, kinetic fluorescence intensity (AID 624326).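 Further: rate of fluorescence rise from hydrolysis of a fluorogenic O-methyl fluorescein ester substrate.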 The class given is functional.
T4 sequence (P49327 whole entry, the tested form may be a part): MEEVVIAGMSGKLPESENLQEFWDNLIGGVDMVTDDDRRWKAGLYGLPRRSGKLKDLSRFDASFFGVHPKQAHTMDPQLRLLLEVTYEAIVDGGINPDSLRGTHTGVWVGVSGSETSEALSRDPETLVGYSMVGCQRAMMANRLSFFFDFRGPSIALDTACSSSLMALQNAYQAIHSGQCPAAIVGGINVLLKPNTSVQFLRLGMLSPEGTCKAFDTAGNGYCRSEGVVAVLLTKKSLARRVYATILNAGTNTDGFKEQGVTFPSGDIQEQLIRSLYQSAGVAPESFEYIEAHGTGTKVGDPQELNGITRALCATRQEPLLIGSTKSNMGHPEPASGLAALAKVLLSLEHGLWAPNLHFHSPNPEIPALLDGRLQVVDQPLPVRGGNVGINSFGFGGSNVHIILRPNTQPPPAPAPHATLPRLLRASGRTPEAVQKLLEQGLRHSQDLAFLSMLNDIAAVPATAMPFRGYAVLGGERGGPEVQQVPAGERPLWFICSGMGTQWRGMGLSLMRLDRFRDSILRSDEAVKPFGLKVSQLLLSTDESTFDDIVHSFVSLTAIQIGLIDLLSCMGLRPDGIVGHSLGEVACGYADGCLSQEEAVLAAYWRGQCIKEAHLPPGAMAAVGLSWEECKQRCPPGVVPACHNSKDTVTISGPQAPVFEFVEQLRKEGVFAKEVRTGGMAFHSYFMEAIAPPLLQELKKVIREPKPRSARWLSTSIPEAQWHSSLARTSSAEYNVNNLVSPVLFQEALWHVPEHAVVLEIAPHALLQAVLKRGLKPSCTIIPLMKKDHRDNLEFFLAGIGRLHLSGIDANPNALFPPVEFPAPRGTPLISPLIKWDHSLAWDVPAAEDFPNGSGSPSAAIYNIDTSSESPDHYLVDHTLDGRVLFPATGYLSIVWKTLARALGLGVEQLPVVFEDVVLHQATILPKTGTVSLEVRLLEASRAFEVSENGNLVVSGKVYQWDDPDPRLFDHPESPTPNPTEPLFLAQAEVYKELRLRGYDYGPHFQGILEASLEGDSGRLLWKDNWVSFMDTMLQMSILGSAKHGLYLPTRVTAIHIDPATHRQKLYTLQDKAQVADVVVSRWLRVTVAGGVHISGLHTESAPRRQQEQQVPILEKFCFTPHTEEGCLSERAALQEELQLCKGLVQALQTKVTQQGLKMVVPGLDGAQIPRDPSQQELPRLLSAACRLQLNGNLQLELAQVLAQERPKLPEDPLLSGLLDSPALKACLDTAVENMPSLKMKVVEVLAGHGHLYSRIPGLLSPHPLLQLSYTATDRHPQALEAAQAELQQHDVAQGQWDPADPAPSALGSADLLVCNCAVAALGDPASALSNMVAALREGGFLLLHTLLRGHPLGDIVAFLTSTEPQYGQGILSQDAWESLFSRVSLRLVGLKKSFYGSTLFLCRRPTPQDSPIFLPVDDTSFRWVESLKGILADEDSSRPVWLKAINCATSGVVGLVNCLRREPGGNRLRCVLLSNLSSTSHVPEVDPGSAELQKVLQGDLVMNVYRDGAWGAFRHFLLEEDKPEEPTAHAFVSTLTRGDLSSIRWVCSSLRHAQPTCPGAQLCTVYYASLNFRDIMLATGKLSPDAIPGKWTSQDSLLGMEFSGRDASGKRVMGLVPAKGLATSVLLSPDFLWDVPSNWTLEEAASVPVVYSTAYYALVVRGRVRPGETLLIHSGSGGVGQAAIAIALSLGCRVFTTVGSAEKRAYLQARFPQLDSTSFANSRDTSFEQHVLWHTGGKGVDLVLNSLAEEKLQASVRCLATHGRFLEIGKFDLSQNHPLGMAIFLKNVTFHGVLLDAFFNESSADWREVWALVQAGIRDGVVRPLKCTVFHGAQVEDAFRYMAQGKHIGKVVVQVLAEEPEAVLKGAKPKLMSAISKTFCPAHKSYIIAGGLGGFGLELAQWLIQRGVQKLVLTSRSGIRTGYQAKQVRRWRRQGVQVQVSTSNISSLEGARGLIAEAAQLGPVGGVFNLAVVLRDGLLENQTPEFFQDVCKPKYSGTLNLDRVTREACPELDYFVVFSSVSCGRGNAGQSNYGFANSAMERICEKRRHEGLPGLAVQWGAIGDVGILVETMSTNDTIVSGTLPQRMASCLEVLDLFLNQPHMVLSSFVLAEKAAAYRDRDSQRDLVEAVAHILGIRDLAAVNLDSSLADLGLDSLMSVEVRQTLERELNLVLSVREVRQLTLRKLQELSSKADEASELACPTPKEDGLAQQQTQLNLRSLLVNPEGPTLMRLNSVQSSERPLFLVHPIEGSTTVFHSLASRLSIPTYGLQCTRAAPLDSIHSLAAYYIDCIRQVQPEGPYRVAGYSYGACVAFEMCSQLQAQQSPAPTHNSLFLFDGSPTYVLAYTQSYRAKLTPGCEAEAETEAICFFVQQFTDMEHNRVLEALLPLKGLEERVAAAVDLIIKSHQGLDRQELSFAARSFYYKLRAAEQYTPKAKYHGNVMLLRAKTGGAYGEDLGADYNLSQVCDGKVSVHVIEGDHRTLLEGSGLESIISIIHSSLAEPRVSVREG
For test [11], the target named is T4, Fatty acid synthase. The experiment in a line: FAS thioesterase domain inhibitors, dose response, biochemical, endpoint fluorescence intensity, uHTS hits (AID 624327).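 Further: fluorescence from hydrolysis of an O-methyl fluorescein acyl ester substrate by the enzyme.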 The class given is functional.
A short description of test [12]: inhibitors of intracellular T. cruzi replication, confirmation, NIH3T3 host cells, beta-gal luminescence (AID 2044).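 Further: intracellular parasites grown in NIH/3T3 mouse fibroblasts as host cells; luminescent beta-galactosidase reporter signal from transgenic T. cruzi replicating inside host cells; inhibitors lower the luminescence signal.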 The class given is functional, cell-based.
Test [13] in a line: cytotoxicity toward NIH3T3 fibroblasts, dose response, counter-screen, cell-based, ATP luminescence, mouse fibroblasts (AID 2010).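 Further: cells exposed to compound for about 90 hours before reading.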 Format: functional.
In test [14] the target is T5, Long-chain-fatty-acid--AMP ligase FadD28 (Mycobacterium tuberculosis, UniProt P9WQ59).
T5 sequence (P9WQ59 whole entry): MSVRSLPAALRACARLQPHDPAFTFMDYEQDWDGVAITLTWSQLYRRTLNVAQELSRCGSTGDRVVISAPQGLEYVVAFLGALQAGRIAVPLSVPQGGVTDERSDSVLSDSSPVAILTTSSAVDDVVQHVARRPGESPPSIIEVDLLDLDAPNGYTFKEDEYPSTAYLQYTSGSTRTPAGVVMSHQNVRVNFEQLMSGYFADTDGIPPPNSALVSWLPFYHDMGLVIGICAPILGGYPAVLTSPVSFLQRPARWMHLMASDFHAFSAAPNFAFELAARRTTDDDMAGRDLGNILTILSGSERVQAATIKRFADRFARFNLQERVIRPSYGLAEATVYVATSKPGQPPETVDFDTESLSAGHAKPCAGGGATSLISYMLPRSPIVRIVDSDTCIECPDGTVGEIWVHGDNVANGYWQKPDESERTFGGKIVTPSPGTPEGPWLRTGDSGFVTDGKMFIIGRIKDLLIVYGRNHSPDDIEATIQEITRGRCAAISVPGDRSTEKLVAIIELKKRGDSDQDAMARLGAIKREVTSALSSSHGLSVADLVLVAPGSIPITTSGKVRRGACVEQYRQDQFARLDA
The experiment in a line: Fluorescence polarization aasay to screen for inhibitors that compete for the binding of FadD28 to a bisubstrate Measured in Biochemical System Using Plate Reader - 2147-01_Inhibitor_Dose_CherryPick_Activity. Format: functional, Mycobacterium tuberculosis H37Rv.

Test [15] concerns the target T6, Carboxy-terminal domain RNA polymerase II polypeptide A small phosphatase 1 (Homo sapiens, UniProt Q9GZU7).
T6 sequence (Q9GZU7 whole entry): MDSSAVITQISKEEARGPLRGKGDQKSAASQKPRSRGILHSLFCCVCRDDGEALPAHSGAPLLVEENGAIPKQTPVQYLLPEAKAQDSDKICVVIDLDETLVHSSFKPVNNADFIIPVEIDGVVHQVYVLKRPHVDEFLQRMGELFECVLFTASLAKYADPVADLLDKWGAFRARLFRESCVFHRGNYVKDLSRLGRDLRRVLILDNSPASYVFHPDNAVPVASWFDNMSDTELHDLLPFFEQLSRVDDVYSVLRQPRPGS
The test can be described thus: inhibitors of CTDSP1, concentration-response testing, biochemical assay, absorbance-based, actives from ultra-high-throughput screening (AID 540297). The class given is functional.

The nature of test [16]: inhibitors of HIV Env-driven cell fusion, dose response, cherry-pick (AID 652057). The class given is functional, cell-based.
Test [17] can be described thus: ZM109 Env clade C HIV-1 fusion inhibitors, dose response, HeLa effector, CEM target cells, luciferase, cherry-pick (AID 652058). The class given is functional, cell-based.
Test [18] is described as follows: inhibitors of clade B AD8 Env fusion, dose response, cell-based, cherry-pick (AID 652062).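 Further: luciferase signal from cell-cell fusion driven by HIV-1 clade B AD8 Env; potency is for inhibitors of fusion seen as a drop in luminescence.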 Format: functional.

Calls of active or inactive are those of the source.

Our source for the AC50, IC50 and EC50 values is ChEMBL document CHEMBL1201862, “PubChem BioAssay data set” (2004).

For the molecule `CCN(CC)CCCN(Cc1cc2cc3c(cc2nc1O)OCO3)C(S)=NCCCOC`, the AC50 in [1] was > 20 µM (inactive).
`Cc1cc(N2CCN(C)CC2)nc2ccc(NC(S)=NCc3cccs3)cc12`: the AC50 in test [2] is 17 µM (active).
Consider `COc1ccc(CCNc2cc(N3CCN(C(=O)c4ccccc4F)CC3)ccc2[N+](=O)[O-])cc1OC`, for which the IC50 in test [3] was > 80 µM (inactive). Further, the AC50 in [4] was 0.845 µM (active); in test [5], 0.811 µM (active); in [6], 1.26 µM (active).
With `CC(C)Cn1c(N)c(C(=O)CSc2ccc3c(c2)OCCO3)c(=O)n(C)c1=O`, in [3], the IC50 was > 80 µM (inactive). The AC50 in [4] is 1.74 µM (active); at Cytochrome P450 1A2, 31.6 µM (inconclusive); with INS1, 2.98 µM (active); in test [5] it was 1.57 µM (active); in [6], 0.674 µM (active).
Take `CC(C)n1c(CN(C)Cc2ccccc2)nc2c1c(=O)n(C)c(=O)n2C`: the EC50 in test [7] was 43 µM (active); in [8] it was > 120 µM (not active); in [9], > 120 µM (not active). The IC50 in [3] was > 80 µM (inactive).
For the molecule `Cc1c(Cl)c([N+](=O)[O-])nn1CCCC(=O)N(Cc1ccccc1)Cc1ccccc1`, the IC50 at Fatty acid synthase [10] was 11 µM (active); on Fatty acid synthase [11], 10 µM (active). The EC50 is 1.86 µM (active) in test [12] and 29.7 µM (active) in [13].
For `Cc1cccc(CSCCNC(=O)c2ccc(N(C)S(=O)(=O)c3ccccc3)cc2)c1`, the AC50 in [14] is > 100 µM (inactive).
Regarding `Cc1ccc(NC(=O)Nc2sc(=S)n(C)c2C)cc1`, the AC50 in test [14] was > 100 µM (inactive).
On to `COCCCNC(=O)C(=O)Nc1ccc2c(c1)N(S(=O)(=O)c1cccs1)CCC2`, for which the EC50 in test [7] was 4.45 µM (inconclusive); in [8], 0.419 µM (active); in test [9], 6.86 µM (active). Moreover, the IC50 in test [3] is > 80 µM (inactive).
On to `Cc1cccc(N2CCN(C(=O)c3ccc(S(=O)(=O)N(C)c4ccccc4)cc3)CC2)c1C`, for which the IC50 was > 80 µM (inactive) in test [3] and 12 µM (active) in test [15].
Consider `COc1ccc(C(=O)Cn2c(=O)oc3ccc(C)cc32)cc1`, for which, in [14], the AC50 was 36.7 µM (active).
Consider `COc1ccc(NS(=O)(=O)c2cc(NC(=O)COc3ccccc3)ccc2N2CCOCC2)cc1`, for which, in test [14], the AC50 is > 100 µM (inactive).
In the case of `O=C(NCCCc1nc2ccccc2[nH]1)c1ccco1`, the AC50 was 48.8 µM (active) in test [16] and 1.61 µM (active) in test [17].
For the molecule `CCNc1ncnc2c1cnn2C1CCCO1` (stereo not given), the AC50 in [17] is 13.5 µM (active).
`COc1ccccc1/N=C(\C)C1=C(O)CC(c2ccccc2)CC1=O` (stereo not given): the IC50 in test [3] is > 80 µM (inactive).
In the case of `CCOC(=O)N/N=C/c1c(C)nn(-c2cccc(C(F)(F)F)c2)c1Cl`, in test [3], the IC50 is 69.6 µM (inactive).
With `C[C@H](CO)N1C[C@H](C)[C@@H](CN(C)C(=O)Nc2cccc(C(F)(F)F)c2)OCc2ccccc2-c2ccccc2C1=O`, the figures for the AC50 in test [16] and in [18] were < 0.285 µM (active) and 0.346 µM (active), respectively.
Take `Cc1ccc(-c2ccc3c(c2)O[C@@H](CN(C)Cc2ccncc2)[C@H](C)CN([C@H](C)CO)S3(=O)=O)cc1`: the figures for the AC50 in test [16] and in [18] were 10.2 µM (active) and 14.2 µM (active), respectively.
Regarding `Cc1cc2nc(NC(=N)N)nc(C)c2cc1C`, the AC50 in test [2] is 3.41 µM (active).
